Experimental data as given in ChEMBL document CHEMBL3576787, “Alkaloidal metabolites from a marine-derived Aspergillus sp. fungus” (J Nat Prod, 2015).
Converted amounts (≈) assume the structure as drawn. The source made the active and inactive calls. The calls are words filed in the database; no cut-off is given here.

Legend:
Micrococcus luteus = assay: Antimicrobial activity against Micrococcus luteus incubated for 24 hrs; assay type: functional
Proteus hauseri = assay: Antimicrobial activity against Proteus hauseri incubated for 24 hrs; assay type: functional
Escherichia coli = assay: Antimicrobial activity against Escherichia coli incubated for 24 hrs; assay type: functional
[1] = biological target: Isocitrate lyase (Candida albicans) (UniProt Q9P8Q7); assay: Inhibition of Candida albicans isocitrate lyase assessed as reduction in glyoxylate phenylhydrazone formation using phenylhydrazine and isocitrate incubated for 30 mins by spectrophotometry
[2] = Inhibition of porcine cerebral cortex Na+/K+ ATPase using 3-O-methylfluorescein phosphate and […] incubated for 30 mins by spectrophotometry; assay type: tissue-based, Sus scrofa
A549 = assay: Cytotoxicity against human A549 cells; assay type: functional, cell-based
Salmonella typhimurium = assay: Antimicrobial activity against Salmonella typhimurium incubated for 24 hrs; assay type: functional, Salmonella enterica subsp. enterica serovar Typhimurium; conditions: Salmonella enterica
[3] = biological target: Sortase A (Staphylococcus aureus) (UniProt Q2FV99); assay: Inhibition of sortase A (Staphylococcus aureus)
Staphylococcus aureus = assay: Antimicrobial activity against Staphylococcus aureus incubated for 24 hrs; assay type: functional
K562 = assay: Cytotoxicity against human K562 cells; assay type: functional, cell-based

Chain of Isocitrate lyase (Candida albicans) (Q9P8Q7 whole entry): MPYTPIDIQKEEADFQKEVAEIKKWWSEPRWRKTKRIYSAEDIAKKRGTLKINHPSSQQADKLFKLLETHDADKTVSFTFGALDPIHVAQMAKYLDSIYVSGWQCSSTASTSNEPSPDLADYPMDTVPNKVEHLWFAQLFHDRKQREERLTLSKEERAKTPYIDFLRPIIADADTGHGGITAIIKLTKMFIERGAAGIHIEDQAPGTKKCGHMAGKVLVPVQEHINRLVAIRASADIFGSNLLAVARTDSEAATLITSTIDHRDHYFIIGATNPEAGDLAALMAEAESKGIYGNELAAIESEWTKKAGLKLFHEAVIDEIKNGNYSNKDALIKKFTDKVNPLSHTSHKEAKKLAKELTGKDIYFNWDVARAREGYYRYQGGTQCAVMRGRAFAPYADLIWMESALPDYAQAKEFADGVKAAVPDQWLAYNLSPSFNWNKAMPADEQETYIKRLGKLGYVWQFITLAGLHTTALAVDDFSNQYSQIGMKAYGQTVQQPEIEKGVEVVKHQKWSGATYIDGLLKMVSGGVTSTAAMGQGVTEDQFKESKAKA

MIC (Micrococcus luteus)	MIC (Proteus hauseri)	MIC (Escherichia coli)	inhibition [1]	IC50 [2]	MIC (Salmonella typhimurium)	inhibition [3]	MIC (Staphylococcus aureus)	SMILES	IC50 (A549)	IC50 (K562)
> 100 mg/L	> 100 mg/L	> 100 mg/L	inactive	37.9 µM	> 100 mg/L	inactive	> 100 mg/L	CC(C)[C@H]1C(=O)N2c3ccccc3[C@]3(O)C[C@@H](n4cnc5ccccc5c4=O)C(=O)N1[C@H]23	18.6 µM	14.4 µM
> 100 mg/L	100 mg/L (≈ 279 µM)	> 100 mg/L	inactive	17.4 µM	> 100 mg/L	inactive	> 100 mg/L	C[C@@H]1NC(=O)[C@@H](Cc2c[nH]c3ccccc23)n2c1nc1ccccc1c2=O [FUMIQUINAZOLINE F]	> 100 µM	> 100 µM
> 100 mg/L	> 100 mg/L	> 100 mg/L	inactive	34.3 µM	> 100 mg/L	inactive	> 100 mg/L	CC(C)[C@@H]1N[C@@H]2N(C1=O)c1ccccc1[C@]2(O)C[C@@H]1C(=O)N[C@@H](C)c2nc3ccccc3c(=O)n21	15.8 µM	13.8 µM
100 mg/L (≈ 212 µM)	> 100 mg/L	> 100 mg/L	inactive	20.2 µM	100 mg/L (≈ 212 µM)	inactive	> 100 mg/L	CC(C)[C@@H]1N[C@@H]2N(C1=O)c1ccccc1[C@]21C[C@@H]2C(=O)N[C@](C)(O1)c1nc3ccccc3c(=O)n12 [FUMIQUINAZOLINE L]	> 100 µM	> 100 µM
								COc1cccc2c1C(=O)c1c(O)c3c(c(O)c1C2=O)C[C@@](O)(C(=O)CO)C[C@@H]3O[C@H]1C[C@H](N)[C@H](O)[C@H](C)O1 [DOXORUBICIN]	1.83 µM	1.46 µM
> 100 mg/L	> 100 mg/L	> 100 mg/L	inactive	78.1 µM	> 100 mg/L	inactive	> 100 mg/L	C[C@H]1C(=O)N2c3ccccc3[C@]3(O)C[C@@H](n4cnc5ccccc5c4=O)C(=O)N1[C@H]23	21.9 µM	50.4 µM
> 100 mg/L	> 100 mg/L	> 100 mg/L	inactive	19.5 µM	> 100 mg/L	inactive	> 100 mg/L	CC[C@H]1C(=O)N2c3ccccc3[C@]3(O)C[C@@H](n4cnc5ccccc5c4=O)C(=O)N1[C@H]23	19.3 µM	25.9 µM
> 100 mg/L	100 mg/L (≈ 232 µM)	> 100 mg/L	inactive	56.8 µM	100 mg/L (≈ 232 µM)	inactive	100 mg/L (≈ 232 µM)	CC(C)[C@H]1C(=O)N2c3ccccc3[C@]3(O)C[C@H](n4cnc5ccccc5c4=O)C(=O)N1[C@H]23	29.2 µM	17.8 µM

SMILES	MIC (Micrococcus luteus)	MIC (Proteus hauseri)	MIC (Escherichia coli)	inhibition [1]	IC50 [2]	MIC (Salmonella typhimurium)	inhibition [3]	MIC (Staphylococcus aureus)	IC50 (A549)	IC50 (K562)
CC1(C)S[C@@H]2[C@H](NC(=O)[C@H](N)c3ccccc3)C(=O)N2[C@H]1C(=O)O [AMPICILLIN]	0.2 mg/L (≈ 0.572 µM)	0.39 mg/L (≈ 1.12 µM)	3.13 mg/L (≈ 8.96 µM)			0.78 mg/L (≈ 2.23 µM)		0.78 mg/L (≈ 2.23 µM)		
C[C@@H]1O[C@@H](O[C@H]2C[C@@H](O)[C@]3(CO)[C@H]4[C@H](O)C[C@]5(C)[C@@H](C6=CC(=O)OC6)CC[C@]5(O)[C@@H]4CC[C@]3(O)C2)[C@H](O)[C@H](O)[C@H]1O [OUABAIN]					6.43 µM					
